# Assay results from patent US20250381133A1, “ARTICLE IN THE FORM OF EDIBLE SHEET” (TECOZYME INC, priority 2020, published 2025).
# Test system: mouse tongue
# Test: In vivo biostability / mucoadhesiveness on mouse tongue
# Set-up: species or system ICR mice
# Conditions: after 60 minutes, high salivary flow; FIG. 19
# Procedure: Eight-week-old ICR mice were anesthetized with 100mg/kg of ketamine and 16.7 mg/kg of xylazine cocktail. 10 mg of the oral patch was applied to the tongue. 0.2 mg/kg of Pilocarpine was administered intraperitoneally to stimulate salivation. Tongue tissues were harvested at 30 and 60 minutes post-injection for SEM and fluorescence imaging.
substance,measurement,value
"unencapsulated FITC-BSA: FITC-labeled bovine serum albumin, not loaded in a patch",retention of FITC-BSA on the tongue surface,completely washed away
